We go through 41 compounds from patent US12570673B2, “c-Myc protein inhibitor, and preparation method therefor and use thereof” (SUZHOU KINTOR PHARMACEUTICALS, INC., priority 2019, dated 2026).

The experiment has as its system HL60 cells. Put plainly: Anti-cancer activity test, MTT, HL60 cells. To be noted: Homo sapiens, HL-60, culturing for 72 hours. It is filed as cell-based. Here is the method:
Cell culture medium: Roswell medium RPMI-1640 (+L-glutamine) was added with 10% fetal bovine serum, with 100 units penicillin and 100 μg streptomycin per ml.
Cell culture conditions: 5% CO2, 95% humidity, cultured at 37° C. constant temperature.
2. Cell Inoculation, Drugs Dosing and Culture.
Logarithmic growth phase HL-60, human chronic myeloid leukemia cells (K562), human esophageal squamous cell carcinoma cells (KYSE510), human large cell lung cancer cells (H460) were inoculated into 96-well cell culture plates, 2×10^4 cells per well. Different concentrations of active compounds (dissolved in dimethyl sulfoxide (DMSO) stock solution) were added, so that the final concentration of DMSO was 0.2%, and the control group was DMSO. Each group was repeated three times.
After culturing for 72 hours, 20 µL of thiazolyl blue (MTT) (5 mg/ml, ready for use, dissolved in 1×PBS for cell culture) was added to each well, and incubated at 37° C. for 3 hours.
The 96-well cell culture plates were centrifuged at 1000 rpm for 10 minutes. The supernatant was discarded; 200 μL of DMSO was added to each well and the plate was shaken for 5 minutes.
The absorbance of each well was detected at 570 nm wavelength with a microplate reader, and the IC50 of the compounds was calculated.

By IC50 is commonly meant the point on the concentration scale where inhibition reaches its midpoint.

SMILES strings stand for the structures.

With `CC(C)C[C@H](NC(=O)[C@H](CC(=O)NC(c1ccccc1)(c1ccccc1)c1ccccc1)NC(=O)OCC1c2ccccc2-c2ccccc21)B1O[C@@H]2C[C@@H]3C[C@@H](C3(C)C)[C@]2(C)O1` [Compound A1], the IC50 is < 100 nM.
The figure for `CC(C)C[C@H](NC(=O)[C@H](Cc1cn(C(=O)OC(C)(C)C)c2ccccc12)NC(=O)OCC1c2ccccc2-c2ccccc21)B1O[C@@H]2C[C@@H]3C[C@@H](C3(C)C)[C@]2(C)O1` [Compound A8] is < 100 nM; for `CC(C)C[C@H](NC(=O)[C@@H](CC(=O)NC(c1ccccc1)(c1ccccc1)c1ccccc1)NC(=O)OCC1c2ccccc2-c2ccccc21)B1O[C@@H]2C[C@@H]3C[C@@H](C3(C)C)[C@]2(C)O1` [Compound A9] it is 100 to 500 nM; for `CC(C)C[C@H](NC(=O)[C@@H](NC(=O)OCC1c2ccccc2-c2ccccc21)[C@@H](C)O)B1O[C@@H]2C[C@@H]3C[C@@H](C3(C)C)[C@]2(C)O1` [Compound A11] it is 100 to 500 nM.
To `CC(C)C[C@H](NC(=O)[C@H](C)NC(=O)OCC1c2ccccc2-c2ccccc21)B1O[C@@H]2C[C@@H]3C[C@@H](C3(C)C)[C@]2(C)O1` [Compound A12] belongs < 100 nM; to `COC(=O)CC[C@H](NC(=O)OCC1c2ccccc2-c2ccccc21)C(=O)N[C@@H](CC(C)C)B1O[C@@H]2C[C@@H]3C[C@@H](C3(C)C)[C@]2(C)O1` [Compound A14], < 100 nM; to `CC(C)C[C@H](NC(=O)[C@H](Cc1ccccc1)NC(=O)OCC1c2ccccc2-c2ccccc21)B1O[C@@H]2C[C@@H]3C[C@@H](C3(C)C)[C@]2(C)O1` [Compound A15], < 100 nM.
For `COC(=O)C[C@H](NC(=O)OCC1c2ccccc2-c2ccccc21)C(=O)N[C@@H](CC(C)C)B1O[C@@H]2C[C@@H]3C[C@@H](C3(C)C)[C@]2(C)O1` [Compound A16], the IC50 was < 100 nM.
Turning to `CC(C)C[C@H](NC(=O)[C@H](CCc1ccccc1)NC(=O)OCC1c2ccccc2-c2ccccc21)B1O[C@@H]2C[C@@H]3C[C@@H](C3(C)C)[C@]2(C)O1` [Compound A17], the IC50 is < 100 nM.
To `CC(C)C[C@H](NC(=O)[C@H](Cc1c[nH]c2ccccc12)NC(=O)OCC1c2ccccc2-c2ccccc21)B1O[C@@H]2C[C@@H]3C[C@@H](C3(C)C)[C@]2(C)O1` [Compound A18] belongs < 100 nM; to `CC(C)C[C@H](NC(=O)[C@H](CC(=O)NC(c1ccccc1)(c1ccccc1)c1ccccc1)NC(=O)OC(C)(C)C)B1O[C@@H]2C[C@@H]3C[C@@H](C3(C)C)[C@]2(C)O1` [Compound A19], 100 to 500 nM; to `CC(C)C[C@H](NC(=O)[C@H](CC(=O)NC(c1ccccc1)(c1ccccc1)c1ccccc1)NC(=O)OCc1ccccc1)B1O[C@@H]2C[C@@H]3C[C@@H](C3(C)C)[C@]2(C)O1` [Compound A20], < 100 nM.
To `CC(C)C[C@H](NC(=O)[C@H](Cc1c[nH]c2ccccc12)NC(=O)OCc1ccccc1)B1O[C@@H]2C[C@@H]3C[C@@H](C3(C)C)[C@]2(C)O1` [Compound A21] belongs < 100 nM; to `C[C@H](NC(=O)[C@H](CCCCNC(=O)OC(C)(C)C)NC(=O)OCC1c2ccccc2-c2ccccc21)B1O[C@@H]2C[C@@H]3C[C@@H](C3(C)C)[C@]2(C)O1` [Compound A23], 100 to 500 nM; to `CC(C)C[C@H](NC(=O)[C@H](CC(C)C)NC(=O)CC1c2ccccc2-c2ccccc21)B1O[C@@H]2C[C@@H]3C[C@@H](C3(C)C)[C@]2(C)O1` [Compound A24], < 100 nM.
To `CC(C)C[C@H](NC(=O)[C@H](Cc1c[nH]c2ccccc12)NC(=O)CC12CC3CC(CC(C3)C1)C2)B1O[C@@H]2C[C@@H]3C[C@@H](C3(C)C)[C@]2(C)O1` [Compound A25] belongs < 100 nM.
For the compound `CC(C)C[C@H](NC(=O)[C@H](Cc1c[nH]c2ccccc12)NC(=O)C12CC3CC(CC(C3)C1)C2)B1O[C@@H]2C[C@@H]3C[C@@H](C3(C)C)[C@]2(C)O1` [Compound A26], the IC50 was 500 to 2000 nM.
To `CC(C)C[C@H](NC(=O)[C@H](Cc1cn(C(=O)OC(C)(C)C)c2ccccc12)NC(=O)C1CC2C=CC1C2)B1O[C@@H]2C[C@@H]3C[C@@H](C3(C)C)[C@]2(C)O1` (some centres unmarked) [Compound A27] belongs < 100 nM; to `CC(C)C[C@H](NC(=O)[C@H](Cc1cn(C(=O)OC(C)(C)C)c2ccccc12)NC(=O)C12CC3CC(C1)C(=O)C(C3)C2)B1O[C@@H]2C[C@@H]3C[C@@H](C3(C)C)[C@]2(C)O1` [Compound A28], 500 to 2000 nM.
Turning to `CC(C)C[C@H](NC(=O)[C@H](Cc1c[nH]c2ccccc12)NC(=O)CC1CCCCC1)B1O[C@@H]2C[C@@H]3C[C@@H](C3(C)C)[C@]2(C)O1` [Compound A29], the IC50 was < 100 nM.
As for `CC(C)C[C@H](NC(=O)[C@H](Cc1c[nH]c2ccccc12)NC(=O)CC1CCCC1)B1O[C@@H]2C[C@@H]3C[C@@H](C3(C)C)[C@]2(C)O1` [Compound A30], the IC50 is < 100 nM.
For `CC(C)C[C@H](NC(=O)[C@H](Cc1c[nH]c2ccccc12)NC(=O)CC1CC1)B1O[C@@H]2C[C@@H]3C[C@@H](C3(C)C)[C@]2(C)O1` [Compound A31], the IC50 was < 100 nM.
For `CC(C)C[C@H](NC(=O)[C@H](Cc1c[nH]c2ccccc12)NS(=O)(=O)Cc1ccccc1)B1O[C@@H]2C[C@@H]3C[C@@H](C3(C)C)[C@]2(C)O1` [Compound A32], the IC50 was < 100 nM.
In the case of `CC(C)C[C@H](NC(=O)[C@H](Cc1c[nH]c2ccccc12)NC(=O)c1ccncc1)B1O[C@@H]2C[C@@H]3C[C@@H](C3(C)C)[C@]2(C)O1` [Compound A33], the IC50 fell in the range of 500 to 2000 nM.
Consider `CC(C)C[C@H](NC(=O)[C@H](Cc1c[nH]c2ccccc12)NC(=O)c1nc2ccccc2s1)B1O[C@@H]2C[C@@H]3C[C@@H](C3(C)C)[C@]2(C)O1` [Compound A34], for which the IC50 lay within 100 to 500 nM.
The compound `CC(C)C[C@H](NC(=O)[C@H](Cc1c[nH]c2ccccc12)NC(=O)c1ccc2ncccc2c1)B1O[C@@H]2C[C@@H]3C[C@@H](C3(C)C)[C@]2(C)O1` [Compound A35] displayed an IC50 of 100 to 500 nM.
To `CC(C)C[C@H](NC(=O)[C@H](Cc1c[nH]c2ccccc12)NC(=O)c1cnc2ccccc2c1)B1O[C@@H]2C[C@@H]3C[C@@H](C3(C)C)[C@]2(C)O1` [Compound A36] belongs < 100 nM; to `CC(C)C[C@H](NC(=O)[C@H](Cc1c[nH]c2ccccc12)NC(=O)c1ccc2ccccc2c1)B1O[C@@H]2C[C@@H]3C[C@@H](C3(C)C)[C@]2(C)O1` [Compound A37], < 100 nM.
To `CC(C)C[C@H](NC(=O)[C@H](CC(N)=O)NC(=O)CC1c2ccccc2-c2ccccc21)B1O[C@@H]2C[C@@H]3C[C@@H](C3(C)C)[C@]2(C)O1` [Compound A38] belongs 100 to 500 nM; to `CC(C)C[C@H](NC(=O)[C@H](CC(C)C)NC(=O)Cn1c2ccccc2c2ccncc21)B1O[C@@H]2C[C@@H]3C[C@@H](C3(C)C)[C@]2(C)O1` [Compound A39], 500 to 2000 nM.
Consider `CC(C)C[C@H](NC(=O)[C@H](CC(C)C)NC(=O)Cn1c2ccc(Br)cc2c2cc(Br)ccc21)B1O[C@@H]2C[C@@H]3C[C@@H](C3(C)C)[C@]2(C)O1` [Compound A40], for which the IC50 was in the range of 500 to 2000 nM.
To `CC(C)C[C@H](NC(=O)[C@H](CC(C)C)NC(=O)Cn1c2ccccc2c(=O)c2ccccc21)B1O[C@@H]2C[C@@H]3C[C@@H](C3(C)C)[C@]2(C)O1` [Compound A41] belongs 500 to 2000 nM; to `CC(C)C[C@H](NC(=O)[C@H](CC(C)C)NC(=O)NC1c2ccccc2-c2ccccc21)B1O[C@@H]2C[C@@H]3C[C@@H](C3(C)C)[C@]2(C)O1` [Compound A42], < 100 nM; to `CC(C)C[C@H](NC(=O)[C@H](CC(C)C)NC(=O)NCC1c2ccccc2-c2ccccc21)B1O[C@@H]2C[C@@H]3C[C@@H](C3(C)C)[C@]2(C)O1` [Compound A43], < 100 nM.
Regarding `CC(C)C[C@H](NC(=O)[C@H](Cc1c[nH]c2ccccc12)NC(=O)NC1CCCC1)B1O[C@@H]2C[C@@H]3C[C@@H](C3(C)C)[C@]2(C)O1` [Compound A44], the IC50 is < 100 nM.
As for `CC(C)C[C@H](NC(=O)[C@H](Cc1c[nH]c2ccccc12)NC(=O)OC1CCCC1)B1O[C@@H]2C[C@@H]3C[C@@H](C3(C)C)[C@]2(C)O1` [Compound A45], the IC50 is < 100 nM.
To `CC(C)C[C@H](NC(=O)[C@H](Cc1c[nH]c2ccccc12)NCc1ccccc1)B1O[C@@H]2C[C@@H]3C[C@@H](C3(C)C)[C@]2(C)O1` [Compound A46] belongs 100 to 500 nM; to `COC(=O)C[C@H](NC(=O)CC1c2ccccc2-c2ccccc21)C(=O)N[C@@H](CC(C)C)B1O[C@@H]2C[C@@H]3C[C@@H](C3(C)C)[C@]2(C)O1` [Compound A47], < 100 nM.
In the case of `CNC(=O)C[C@H](NC(=O)CC1c2ccccc2-c2ccccc21)C(=O)N[C@@H](CC(C)C)B1O[C@@H]2C[C@@H]3C[C@@H](C3(C)C)[C@]2(C)O1` [Compound A48], the IC50 is < 100 nM.
To `CC(C)C[C@H](NC(=O)OCC1c2ccccc2-c2ccccc21)C(=O)N1CCC[C@H]1B1O[C@@H]2C[C@@H]3C[C@@H](C3(C)C)[C@]2(C)O1` [Compound A49] belongs 2000 to 10000 nM.
With `CC(C)C[C@H](NC(=O)[C@H](CC(C)C)N(C)C(=O)OCC1c2ccccc2-c2ccccc21)B1O[C@@H]2C[C@@H]3C[C@@H](C3(C)C)[C@]2(C)O1` [Compound A50], the IC50 was in the range of 2000 to 10000 nM.
